Measurements reported in patent US10975056B2 (GlaxoSmithKline Intellectual Property Development Limited, priority 2016, dated 2021).

Experiments:
[1] = system: human hemoglobin transgenic mice (sickle cell disease model); experiment: Sickle cell mouse model, fetal hemoglobin induction in vivo; details: for increase in % F RBCs / increase in % F reticulocytes: 2 week dose period; for increase in % HbF protein: two weeks
Excerpt: A mouse model of sickle cell disease was utilized to measure the in vivo efficacy of Compound A previously shown to have potent in vitro activity in human primary erythroid progenitor cells derived from normal bone marrow or sickle cell patient peripheral blood mononuclear cells.
The in vivo activity of Compound A was investigated in the sickle cell mouse model in accordance with US/UK standards of animal care.
Male and female human hemoglobin transgenic mice [B6; 129-Hbatm1(HBA)Tow/Hbbtm2(HBG1,HBB*)Tow/J Mice (Jackson Laboratories, Me.)] were approximately 6-8 weeks old and weighed approximately 15-25 grams at the initiation of the studies. To the extent possible, groups were gender balanced and comprised of 6 mice.
Mice were administered vehicle (10% DMA/90% PEG400), 10 or 50 mg/kg Compound A twice daily (BID) by oral route five days per week, over a two week period.
At the end of the dosing period, mice were euthanized by CO2 asphyxiation and blood from the vena cava was collected into EDTA tubes for fetal hemoglobin analysis. % HbF protein was determined by high performance liquid chromatography and % F cells (HbF expressing erythrocytes) were determined by flow cytometry. The mouse monoclonal anti-human HbF antibody conjugated to APC (Life Technologies, Grand Island, N.Y.) was used to identify HbF expressing erythroid cells. The nuclear dye, syto16, (Life Technologies) was used to separate the reticulocyte and RBC populations. Protein and cellular data were collected on the Bio-Rad D10 analyzer (Bio-Rad, Benicia, Calif.) and the FACs Canto I (BD BioSciences, San Jose, Calif.) respectively. Flow cytometry data was analyzed with Flowjo v7 software (Treestar, Inc Ashland. Oreg.). Group mean and standard deviation were determined for the control and treatment groups. Data were graphed and analyzed using 1-Way ANOVA with Tukey post test (Graphpad Prism v5 [La Jolla, Calif.]).

[2] = system: erythroid progenitor cells (EPCs); experiment: Cell growth analysis in day 7 EPCs (Cell Titer-Glo); type: cell-based; details: Homo sapiens, read-out: cell growth inhibition by 50%, average pGI50 (converted), 5 days
Method: Day 7 EPCs were cultured in duplicate plates with serially diluted Compound A for 5 days at 37° C. Wells were then analyzed for either induction of fetal hemoglobin (HbF,HbF ELISA) or cell growth (Cell Titer-Glo). In both cases, signal was normalized to vehicle-control treated cells.
All donors provided written informed consent for use of their samples, and the collection and use of the samples received institutional review board approval. All cryopreserved human bone marrow CD34+ cells used here were obtained from AlICells (Emeryville, Calif.) and were generally from different donors. The CD34+ cells were cultured to generate EPCs at day 7. […]
At the time of compound treatment, frozen day 7 EPCs prepared as described above were thawed, washed once and re-suspended in complete culture media as described above with the exception of an increase of rhEPO to 3 U/mL. Cells were counted and diluted to […] for plating into assay plates. […]
Cell growth assays were performed on cell culture plates after 5 days incubation at 37° C. with 5% CO2. […] The plates were then incubated at room temperature for 10 min prior to reading on ViewLux 1430 (Perkin Elmer) using a luminescence protocol. Average reading of control wells (16 wells in column 6 of each assay plate) containing DMSO only were used as the basal level for normalization. […]

[3] = system: sickle cell disease (SCD) model transgenic mice; experiment: Fetal hemoglobin in sickle cell disease transgenic mouse model, % HbF protein by HPLC; type: in vivo; details: oral, 10 or 50 mg/kg BID daily, measured by HPLC
Excerpt: FIG. 2A depicts the effect of Compound A on fetal hemoglobin in the transgenic mouse model.

[4] = system: CpG sites in or near the promoter regions of HBG1 and HBG2 gene loci; experiment: Bisulfite sequence analysis of HBG1/HBG2 DNA methylation in EPCs; type: cell-based, human; details: EPCs treated for 3 days, average of nine sites
Method: To assay the effect of Compound A on DNA methylation, EPCs treated for 3 days with Compound A were harvested and genomic DNA was bisulfite sequenced. Methylation of nine CpG sites in or near the promoter regions of HBG1 and HBG2 gene loci were selected and analyzed based on their previous characterization as sites of DNMT1 methylation during erythropoiesis (Mabaera et al. Blood: 110 (4). 2007).
Bisulfite Sequence Analysis
Genomic DNA was extracted in duplicate from Day 7 EPCs cultured at 37° C. with 5% CO2 and 5% O2 for 3 days in the presence of compound using a ZYMO gDNA kit (Zymo Research, Irvine, Calif.). The isolated DNA was bisulfite converted using a Zymo EZ DNA Methylation Kit. Primer sets for Bisulfite treated regions within the HBG1 and HBG2 were designed using ABI Methyl Primer Express Software. Analyzed regions included 9 previously described sites of DNMT1-dependent DNA methylation (Mabaera et al. Blood: 110 (4). 2007). DNA was further amplified on the fluidigm and QC'd using the Agilent bio-analyzer. MiSeq was performed using the IIlumina system and the output was Analyzed using ArrayStudio v8 and CLC-GWB v8.1.

CCc1c(C#N)c(SC(C(N)=O)c2ccccc2)nc(N(C)C)c1C#N (stereo not drawn) [Compound A, 2-{[3,5-dicyano-6-(dimethylamino)-4-ethylpyridin-2-yl]sulfanyl}-2-phenylacetamide]
increase in % F RBCs ([1]; 10 mg/kg BID oral, p<0.001): 6 fold
increase in % F reticulocytes ([1]; 10 mg/kg BID oral, p<0.001): 4 fold
increase in % HbF protein ([1]; 10 mg/kg BID oral, p<0.05): 5.4 fold
increase in % F RBCs ([1]; 50 mg/kg BID oral, p<0.001): 8 fold
increase in % F reticulocytes ([1]; 50 mg/kg BID oral, p<0.001): 9 fold
increase in % HbF protein ([1]; 50 mg/kg BID oral, p<0.001): 10.3 fold
GI50 [2]: 1260 nM
% HbF protein [3]: dose dependent increases
decrease in methylation of nine CpG sites compared with vehicle treated cells [4]: 65±5%
